We go through ten compounds from ChEMBL document CHEMBL1152512, “The search for potent, small molecule NNRTIs: A review” (Bioorg Med Chem, 2009).

For data set [1], the system named is Human immunodeficiency virus 1. Put plainly: Antiviral activity against Human immunodeficiency virus 1 3B. The class given is functional, organism-based.
The test system of data set [2] is Human immunodeficiency virus 1. The data set can be described thus: Antiviral activity against Human immunodeficiency virus 1 infected in human MT4 cells. The following applies: Human immunodeficiency virus 1, MT4. The data set is classed as functional, organism-based.
Data set [3] can be described thus: Selectivity index, ratio of human MT4 cytotoxicity to inhibition of HIV1 cytopathicity. The following applies: MT4 cells, read-out: Selectivity Index. The data set is classed as toxicity. A general note: Damage to the host cells serves as the signal in cytopathic effect assays.
The target in data set [4] is T1, Human immunodeficiency virus type 1 reverse transcriptase (Human immunodeficiency virus 1, UniProt Q72547). Put plainly: Inhibition of wild-type HIV1 reverse transcriptase.
Data set [5] deals with Human immunodeficiency virus type 1 reverse transcriptase (Human immunodeficiency virus 1, UniProt Q72547, Y181C). The data set can be described thus: Inhibition of HIV1 reverse transcriptase Y181C mutant.
The target of data set [6] is Human immunodeficiency virus type 1 reverse transcriptase (Human immunodeficiency virus 1, UniProt Q72547, K103N). The data set can be described thus: Inhibition of HIV1 reverse transcriptase K103N mutant.
For data set [7], the target named is T1, Human immunodeficiency virus type 1 reverse transcriptase. The data set can be described thus: Inhibition of HIV1 reverse transcriptase.
In data set [8] the test system is Human immunodeficiency virus. The data set can be described thus: Inhibition of wild-type HIV reverse transcriptase.
The subject of data set [9] is Human immunodeficiency virus type 1 reverse transcriptase (Human immunodeficiency virus 1), Q72547 [K103N]. The data set can be described thus: Inhibition of HIV reverse transcriptase K103N mutant.

A word on the EC50: it is the concentration needed to bring the measured effect to its halfway point. Lower therefore signals a more potent agent. As usually defined, the IC50 is the concentration that gives 50% inhibition. The low end stands for inhibition by little substance, the high end for a need for much substance.

In data set [1], `CC(C)=CCOc1cc(NC(=S)c2ccsc2C)ccc1Cl` came in with an EC50 of 15 nM.
In data set [2], `CC(=O)c1ccc(C)cc1NC(C(N)=O)c1c(Cl)cccc1Cl` (stereo not given) [LOVIRIDE] came in with an EC50 of 13 nM. The selectivity ratio in data set [3] was found to be 10000.
In the case of `Cc1cc(S(N)(=O)=O)ccc1NC(=O)COc1ccc(Cl)cc1C(=O)c1cc(F)cc(C(F)(F)F)c1`, the IC50 in [4] was under 2 nM; in [5] it was under 10 nM; in [6], under 10 nM.
Take `CC(C)=CCN1Cc2c(Cl)ccc3[nH]c(=S)n(c23)C[C@@H]1C` [TIVIRAPINE]: a half-maximal response in data set [2] (EC50) required 4.3 nM.
Turning to `COc1ccccc1NC(C(N)=O)c1c(Cl)cccc1Cl` (stereo not given), the EC50 in [2] worked out at 610 nM. For the same compound, the selectivity ratio in [3] was 10000.
The compound `CC1=C(C(=O)Nc2ccc(Cl)c(C(=O)OC(C)C)c2)SCCO1` came in with an EC50 in data set [1] of 15 nM.
Same read-out and setting: with `CC(C)=CCOc1cc(NC(=S)c2ccoc2C)ccc1Cl` [UC 781] the figure was 15 nM.
Take `CCN(CC)CCOc1ccc(NC(=O)COc2ccccc2C(=O)c2ccc(OC)cc2)cc1`: the IC50 in data set [7] was 21000 nM.
For `CCC1(c2cccc(OC)c2)Oc2ccccc2-n2cccc2C1=O` (stereo not given), the INH was 0.05 µM in data set [8] and 0.022 µM in [9].
On to `C=CCN1Cc2cccc3[nH]c(=O)n(c23)CC1C` (stereo not given), for which, in data set [2], the EC50 came out at 62000 nM.
